This passage reports IC50 and Ki results from ChEMBL document CHEMBL1909046, “DrugMatrix in vitro pharmacology data”.

The target of one data set is T1, Cathepsin G (Homo sapiens, UniProt P08311).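 Also: inhibition of Cathepsin G enzyme activity, tested on an AMC-conjugated peptide substrate; in other assays of this panel Not Active means under 50% inhibition at 10 µM.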
T1 sequence (P08311 whole entry): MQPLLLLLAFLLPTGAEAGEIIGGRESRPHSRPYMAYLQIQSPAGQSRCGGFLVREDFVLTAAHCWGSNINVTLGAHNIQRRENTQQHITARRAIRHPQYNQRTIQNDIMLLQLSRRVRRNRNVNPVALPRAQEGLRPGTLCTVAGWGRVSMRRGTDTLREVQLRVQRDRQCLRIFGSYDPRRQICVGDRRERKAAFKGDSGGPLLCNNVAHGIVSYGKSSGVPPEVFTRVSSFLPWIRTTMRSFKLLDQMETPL
The data set is classed as tissue-based. As to conditions: neutrophil.

The target of data set [1] is Mitogen-activated protein kinase 1 (Homo sapiens, UniProt P28482). Nature of the data set: DRUGMATRIX: Protein Serine/Threonine Kinase, ERK2 enzyme inhibition (substrate: Myelin Basic Protein). Also noted: species or system Escherichia coli. To be noted: Not Active = under 50% inhibition at 10 µM.
Chain of Mitogen-activated protein kinase 1 (P28482 whole entry): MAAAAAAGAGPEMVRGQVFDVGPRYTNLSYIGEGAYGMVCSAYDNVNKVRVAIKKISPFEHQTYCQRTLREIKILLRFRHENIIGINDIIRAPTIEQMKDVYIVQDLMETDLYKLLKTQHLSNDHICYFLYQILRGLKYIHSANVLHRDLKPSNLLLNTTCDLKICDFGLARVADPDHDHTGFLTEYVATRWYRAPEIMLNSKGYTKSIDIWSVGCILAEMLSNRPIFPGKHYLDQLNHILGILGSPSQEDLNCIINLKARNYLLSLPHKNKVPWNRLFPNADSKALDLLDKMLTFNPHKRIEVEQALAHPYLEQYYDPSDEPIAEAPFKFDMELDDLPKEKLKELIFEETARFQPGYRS
In data set [2] the target is T2, Alpha-2C adrenergic receptor (Homo sapiens, UniProt P18825).
T2 sequence (P18825 whole entry): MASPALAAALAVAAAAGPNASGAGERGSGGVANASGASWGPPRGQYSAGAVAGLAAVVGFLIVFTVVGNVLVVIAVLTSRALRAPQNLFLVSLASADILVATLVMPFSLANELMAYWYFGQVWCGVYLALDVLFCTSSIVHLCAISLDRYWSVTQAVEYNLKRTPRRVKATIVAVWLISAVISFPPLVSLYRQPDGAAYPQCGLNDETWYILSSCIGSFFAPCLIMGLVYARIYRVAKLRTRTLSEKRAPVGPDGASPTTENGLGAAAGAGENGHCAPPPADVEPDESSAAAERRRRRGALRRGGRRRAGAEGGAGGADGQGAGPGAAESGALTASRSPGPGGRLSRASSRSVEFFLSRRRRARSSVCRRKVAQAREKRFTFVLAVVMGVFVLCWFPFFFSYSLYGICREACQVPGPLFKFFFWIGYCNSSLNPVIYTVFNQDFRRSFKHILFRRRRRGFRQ
Nature of the data set: DRUGMATRIX: Adrenergic Alpha-2C radioligand binding (ligand: [3H] MK-912). Format: cell membranes, Sf9, Membrane.

The next data set addresses Mu-type opioid receptor (Homo sapiens, UniProt P35372). Put plainly: DRUGMATRIX: Opiate mu (OP3, MOP) radioligand binding (ligand: [3H] Diprenorphine). Format: cell membranes, CHO-K1, Membrane. As to conditions: Not Active = under 50% inhibition at 10 µM.
A short description of data set [3]: DRUGMATRIX: Platelet-Derived Growth Factor (PDGF) radioligand binding (ligand: [125I] PDGF). The data set is classed as cell-based. To be noted: nih3t3; Not Active = under 50% inhibition at 10 µM.
Data set [4] addresses T3, Alpha-1D adrenergic receptor (Homo sapiens, UniProt P25100).
T3 sequence (P25100 whole entry): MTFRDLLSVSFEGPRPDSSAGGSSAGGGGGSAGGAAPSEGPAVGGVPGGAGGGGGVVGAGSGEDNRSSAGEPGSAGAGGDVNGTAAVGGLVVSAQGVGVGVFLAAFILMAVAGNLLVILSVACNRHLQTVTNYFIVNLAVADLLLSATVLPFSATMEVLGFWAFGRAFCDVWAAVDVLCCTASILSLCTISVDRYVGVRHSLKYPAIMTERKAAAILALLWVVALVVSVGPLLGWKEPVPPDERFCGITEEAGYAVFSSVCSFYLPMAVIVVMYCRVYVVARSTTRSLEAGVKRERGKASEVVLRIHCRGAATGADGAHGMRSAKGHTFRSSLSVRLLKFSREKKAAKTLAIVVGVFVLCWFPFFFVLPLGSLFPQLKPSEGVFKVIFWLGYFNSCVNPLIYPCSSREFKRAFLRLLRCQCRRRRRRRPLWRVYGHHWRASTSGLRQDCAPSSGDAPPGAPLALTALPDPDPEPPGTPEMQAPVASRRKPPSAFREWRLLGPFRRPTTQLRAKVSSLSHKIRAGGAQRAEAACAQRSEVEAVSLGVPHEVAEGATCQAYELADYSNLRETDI
Format: cell membranes, HEK293, Membrane. To be noted: hek293.

Data set [5] deals with Beta-2 adrenergic receptor (Homo sapiens, UniProt P07550). Nature of the data set: DRUGMATRIX: Adrenergic beta2 radioligand binding (ligand: [3H] CGP-12177). The data set is classed as cell membranes, Membrane. As to conditions: cho; Not Active = under 50% inhibition at 10 µM.
Chain of Beta-2 adrenergic receptor (P07550 whole entry): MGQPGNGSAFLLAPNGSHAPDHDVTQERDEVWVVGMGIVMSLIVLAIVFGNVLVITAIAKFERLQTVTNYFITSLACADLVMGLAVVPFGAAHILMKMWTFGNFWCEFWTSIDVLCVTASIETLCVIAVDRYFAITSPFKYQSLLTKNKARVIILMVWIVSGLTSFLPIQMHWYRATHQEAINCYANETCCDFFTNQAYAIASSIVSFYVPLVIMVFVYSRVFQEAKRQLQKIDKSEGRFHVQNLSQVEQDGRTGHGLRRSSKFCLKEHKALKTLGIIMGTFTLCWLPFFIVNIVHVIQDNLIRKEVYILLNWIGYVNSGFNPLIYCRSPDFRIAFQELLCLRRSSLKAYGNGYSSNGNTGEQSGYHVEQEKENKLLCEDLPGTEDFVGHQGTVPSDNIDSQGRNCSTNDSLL
Data set [6] deals with Aldo-keto reductase family 1 member B1 (Rattus norvegicus, UniProt P07943). Format: tissue-based, Lens of camera-type eye.
In data set [7] the target is 5-hydroxytryptamine receptor 1B (Rattus norvegicus, UniProt P28564). Format: cell membranes, Wistar, Cerebral cortex, Membrane. Also: in other assays of this panel Not Active means under 50% inhibition at 10 µM.
Chain of 5-hydroxytryptamine receptor 1B (P28564 whole entry): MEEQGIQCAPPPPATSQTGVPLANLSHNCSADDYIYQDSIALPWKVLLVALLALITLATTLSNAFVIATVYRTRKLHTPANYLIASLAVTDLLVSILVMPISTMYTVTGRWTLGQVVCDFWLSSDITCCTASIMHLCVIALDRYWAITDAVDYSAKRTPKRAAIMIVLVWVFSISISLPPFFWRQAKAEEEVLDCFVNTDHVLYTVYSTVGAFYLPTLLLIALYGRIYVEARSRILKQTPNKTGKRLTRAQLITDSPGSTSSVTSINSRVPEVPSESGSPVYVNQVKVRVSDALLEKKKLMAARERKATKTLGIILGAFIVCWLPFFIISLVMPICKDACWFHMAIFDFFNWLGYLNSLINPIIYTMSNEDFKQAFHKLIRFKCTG
Data set [8] is described as follows: DRUGMATRIX: Tumor Necrosis Factor (TNF), Non-Selective radioligand binding (ligand: [125I] TNF-alpha). The data set is classed as cell membranes, Membrane. As to conditions: u-937; Not Active = under 50% inhibition at 10 µM.
Another data set addresses Cytochrome P450 2E1 (Homo sapiens, UniProt P05181). To be noted: bti-tn-5b1-4.
For data set [9], the target named is T4, Vasoactive intestinal polypeptide receptor 1 (Homo sapiens, UniProt P32241). Also: in other assays of this panel Not Active means under 50% inhibition at 10 µM.
T4 sequence (P32241 whole entry): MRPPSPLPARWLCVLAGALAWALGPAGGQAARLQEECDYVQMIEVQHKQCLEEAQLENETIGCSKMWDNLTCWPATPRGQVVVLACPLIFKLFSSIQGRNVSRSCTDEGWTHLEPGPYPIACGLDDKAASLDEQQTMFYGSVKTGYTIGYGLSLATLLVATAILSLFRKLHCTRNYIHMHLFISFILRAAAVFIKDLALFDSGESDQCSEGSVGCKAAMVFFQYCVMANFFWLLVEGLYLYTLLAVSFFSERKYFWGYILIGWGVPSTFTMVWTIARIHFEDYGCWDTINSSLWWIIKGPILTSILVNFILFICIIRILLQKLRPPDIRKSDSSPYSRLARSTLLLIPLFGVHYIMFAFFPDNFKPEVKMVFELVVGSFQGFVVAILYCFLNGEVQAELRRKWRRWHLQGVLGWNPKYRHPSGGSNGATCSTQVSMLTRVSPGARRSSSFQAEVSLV
The data set is classed as cell membranes, Membrane. To be noted: ht-29.

The nature of data set [10]: DRUGMATRIX: Nicotinic Acetylcholine radioligand binding (ligand: [125I] Epibatidine). Format: cell membranes, Membrane. To be noted: imr-32; Not Active = under 50% inhibition at 10 µM.

Chain of Cytochrome P450 2E1 (P05181 whole entry): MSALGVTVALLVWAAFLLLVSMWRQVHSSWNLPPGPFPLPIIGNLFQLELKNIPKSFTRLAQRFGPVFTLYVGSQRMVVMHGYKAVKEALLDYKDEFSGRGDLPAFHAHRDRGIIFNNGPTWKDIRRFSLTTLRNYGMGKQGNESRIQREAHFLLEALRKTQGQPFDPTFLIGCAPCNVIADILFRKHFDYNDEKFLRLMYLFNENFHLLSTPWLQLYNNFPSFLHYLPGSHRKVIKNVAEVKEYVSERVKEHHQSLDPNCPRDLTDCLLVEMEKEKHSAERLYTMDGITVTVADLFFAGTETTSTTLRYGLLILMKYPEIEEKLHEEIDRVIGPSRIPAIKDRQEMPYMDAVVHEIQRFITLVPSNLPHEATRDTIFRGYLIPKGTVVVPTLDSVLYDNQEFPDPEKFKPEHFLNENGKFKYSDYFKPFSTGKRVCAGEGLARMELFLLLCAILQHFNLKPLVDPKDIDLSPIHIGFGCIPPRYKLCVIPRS
Chain of Mu-type opioid receptor (P35372 whole entry): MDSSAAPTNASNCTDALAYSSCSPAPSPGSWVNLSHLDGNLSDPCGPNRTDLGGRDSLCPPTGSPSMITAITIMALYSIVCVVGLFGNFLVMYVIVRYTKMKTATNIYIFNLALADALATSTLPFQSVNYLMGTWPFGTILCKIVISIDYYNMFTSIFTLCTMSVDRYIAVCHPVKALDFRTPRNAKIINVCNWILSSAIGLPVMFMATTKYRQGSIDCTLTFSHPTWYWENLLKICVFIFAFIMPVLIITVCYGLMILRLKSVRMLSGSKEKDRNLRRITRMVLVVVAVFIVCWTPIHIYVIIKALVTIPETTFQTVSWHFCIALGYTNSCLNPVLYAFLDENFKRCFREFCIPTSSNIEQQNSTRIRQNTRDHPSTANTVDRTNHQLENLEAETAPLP

As usually defined, the IC50 is the point on the concentration scale where inhibition reaches its midpoint. What is called Ki is a dissociation constant, usually derived from enzyme kinetics or from competition with a known ligand. `CC1(C)S[C@@H]2[C@H](NC(=O)[C@H](NC(=O)N3CCNC3=O)c3ccccc3)C(=O)N2[C@H]1C(=O)O` [AZLOCILLIN]: the IC50 result (against Cathepsin G; in data set [1]; in data set [2] (sf9); at Mu-type opioid receptor (cho-k1); in data set [3]; in [4]) was “Not Active” throughout. Moreover, the IC50 result (in data set [5]; in data set [6]; in data set [7]; in [8]; on Cytochrome P450 2E1; in data set [9]) was “Not Active” in each case. In addition, in data set [10], the IC50 entry is reported as “Not Active”. Further, the inhibitory constant (Ki) entry (in [3]; in data set [8]; at Cytochrome P450 2E1; in data set [10]) was “Not Active” in each case.
Turning to `CCOC(=O)c1ccc(N)cc1` [BENZOCAINE], the IC50 result (against Cathepsin G; in data set [1]; in [2] (sf9); at Mu-type opioid receptor (cho-k1); in data set [3]; in data set [4]) was “Not Active” in each case. Also, the IC50 entry (in data set [5]; in [6]; in [7]; in [8]; against Cytochrome P450 2E1; in data set [9]) was “Not Active” in each case. Besides, the IC50 entry in data set [10] is on record as “Not Active”. The Ki result (in [3]; in data set [8]; at Cytochrome P450 2E1; in [10]) was “Not Active” in each case.
Turning to `OCc1ccccc1` [BENZYL ALCOHOL], the IC50 result (on Cathepsin G; in [1]; in [2] (sf9); at Mu-type opioid receptor (cho-k1); in data set [3]; in [4]) was “Not Active” throughout. In addition, the IC50 result (in [5]; in [6]; in data set [7]; in data set [8]; against Cytochrome P450 2E1; in [9]) was “Not Active” each time. Moreover, the IC50 result in [10] is listed as “Not Active”. Further, the Ki entry (in data set [3]; in [8]; at Cytochrome P450 2E1; in data set [10]) was “Not Active” throughout.
Regarding `CC(C)(Oc1ccc(CCNC(=O)c2ccc(Cl)cc2)cc1)C(=O)O` [BEZAFIBRATE], the 50% inhibitory concentration (IC50) entry (at Cathepsin G; in data set [1]; in data set [2] (sf9); at Mu-type opioid receptor (cho-k1); in data set [3]; in [4]) was “Not Active” throughout. The IC50 result (in data set [5]; in data set [6]; in [7]; in [8]; on Cytochrome P450 2E1; in [9]) was “Not Active” throughout. In addition, the IC50 result in data set [10] is given as “Not Active”. Further, the Ki result (in data set [3]; in [8]; at Cytochrome P450 2E1; in data set [10]) was “Not Active” throughout.
For the compound `Oc1c(Cl)cc(Cl)cc1Sc1cc(Cl)cc(Cl)c1O` [BITHIONOL], the IC50 result on Cathepsin G is “Not Active”; in [1] (read-out: IC50) it was 385 nM; in [2] (read-out: IC50), 4390 nM; on Mu-type opioid receptor (read-out: IC50) it was 5510 nM; in data set [3] it was “Not Active”; in data set [4] it was “Not Active”. Further, the IC50 entry (in data set [5]; in data set [6]; in [7]; in [8]; against Cytochrome P450 2E1; in [9]) was “Not Active” each time. Also, in data set [10], the IC50 result is recorded as “Not Active”. The Ki was 638 nM in [2] (read-out: Ki); 2240 nM at Mu-type opioid receptor; “Not Active” in [3]; “Not Active” in [8]; “Not Active” on Cytochrome P450 2E1; “Not Active” in [10].
On to `Brc1ccccc1` [BROMOBENZENE], for which the IC50 result (at Cathepsin G; in [1]; in data set [2] (sf9); at Mu-type opioid receptor (cho-k1); in data set [3]; in [4]) was “Not Active” in each case. Moreover, the IC50 result (in data set [5]; in data set [6]; in data set [7]; in data set [8]; on Cytochrome P450 2E1; in data set [9]) was “Not Active” each time. Moreover, the IC50 entry in data set [10] is on record as “Not Active”. In addition, the Ki entry (in [3]; in data set [8]; on Cytochrome P450 2E1; in [10]) was “Not Active” in each case.
Regarding `CCCCOC(=O)c1ccc(N)cc1` [BUTAMBEN], the IC50 result (at Cathepsin G; in data set [1]; in data set [2] (sf9); at Mu-type opioid receptor (cho-k1); in [3]; in data set [4]) was “Not Active” in each case. Besides, the IC50 entry (in [5]; in data set [6]; in [7]; in data set [8]; on Cytochrome P450 2E1; in data set [9]) was “Not Active” throughout. For the same compound, in data set [10], the IC50 entry is reported as “Not Active”. Further, the inhibition constant (Ki) entry (in data set [3]; in data set [8]; at Cytochrome P450 2E1; in data set [10]) was “Not Active” each time.
